From patent publication US11000033B2, “Ketone or oxime compound, and herbicide” (NISSAN CHEMICAL CORPORATION, priority 2014, dated 2021)

Experiments:
Assay type in all cases: in vivo
Details in all cases: 3 weeks after application
[1] = test system: rapeseed; experiment: Test Example 5: effect on crop by foliage application, plastic box (symbol g)
Summary of the method: (§1)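 Soil: sterilized diluvial. Container: plastic box, 21 × 13 cm, 7 cm deep. Sowing: spot-like, ~1.5 cm cover. Growth: greenhouse, 25° C. to 30° C.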

[2] = test system: beet; experiment: Test Example 5: effect on crop by foliage application, plastic box (symbol f)
Summary of the method: as §1

[3] = test system: Setaria viridis; experiment: Test Example 5: herbicidal effect by foliage application, plastic box (symbol G)
Summary of the method: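 Post-emergence spray; diluvial soil (sterilized), ~1.5 cm seed cover; greenhouse 25–30° C; 14-day-old plants; water-diluted emulsion at predetermined dose; visual score at 3 wk post-treatment.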

[4] = test system: wheat; experiment: Test Example 5: effect on crop by foliage application, plastic box (symbol e)
Summary of the method: as §1

| Structure (SMILES) | g: rapeseed, effect on crop (criteria 0-5) ([1]; 320 g/ha) | f: beet, effect on crop (criteria 0-5) ([2]; 320 g/ha) | G: Setaria viridis, herbicidal effect (criteria 0-5) ([3]; 320 g/ha) | e: wheat, effect on crop (criteria 0-5) ([4]; 320 g/ha) | g: rapeseed, effect on crop grade ([1]; 320 g/ha) | f: beet, effect on crop grade ([2]; 320 g/ha) | G: Setaria viridis, herbicidal effect grade ([3]; 320 g/ha) | e: wheat, effect on crop grade ([4]; 320 g/ha) | other results |
| --- | --- | --- | --- | --- | --- | --- | --- | --- | --- |
| CON=C(C)CC1CC(OC(=O)c2nsc(Cl)c2Cl)=C(c2c(C)cc(C)cc2C)C1=O (stereo not drawn) [1-099] | 5 (Herbicidal ratio of 90% or more (almost completely withered)) | 1 (Herbicidal ratio of 5% or higher and lower than 20%) | 5 (Herbicidal ratio of 90% or more (almost completely withered)) | 5 (Herbicidal ratio of 90% or more (almost completely withered)) | – | – | – | – | – |
| CC(CC1CC(OC(=O)COc2ccccc2)=C(c2c(C)cc(-c3ccc(Cl)cc3)cc2C)C1=O)=NOCC(F)(F)F (mixture of isomers) [9-027] | – | – | – | – | 4 (Herbicidal ratio of 70% or higher and lower than 90%) | 0 (Herbicidal ratio of 5% or lower (almost no effect)) | 5 (Herbicidal ratio of 90% or more (almost completely withered)) | 4 (Herbicidal ratio of 70% or higher and lower than 90%) | – |
| CON=C(C)CC1CC(OC(=O)C(CSC)=NOC)=C(c2c(C)cc(C)cc2C)C1=O (stereo not drawn) [1-098] | 5 (Herbicidal ratio of 90% or more (almost completely withered)) | 1 (Herbicidal ratio of 5% or higher and lower than 20%) | 5 (Herbicidal ratio of 90% or more (almost completely withered)) | 5 (Herbicidal ratio of 90% or more (almost completely withered)) | – | – | – | – | – |
| CON=C(C)CC1CC(OC(=O)N(C)C)=C(c2c(C)cc(C)cc2C)C1=O (stereo not drawn) [1-108] | 4 (Herbicidal ratio of 70% or higher and lower than 90%) | 1 (Herbicidal ratio of 5% or higher and lower than 20%) | 5 (Herbicidal ratio of 90% or more (almost completely withered)) | 3 (Herbicidal ratio of 40% or higher and lower than 70%) | – | – | – | – | – |
| CC#Cc1cc(C)c(C2=C(OC(=O)COc3ccccc3)CC(CC(C)=NOCC(F)(F)F)C2=O)c(C)c1 (stereo not drawn) [9-013] | – | – | – | – | 4 (Herbicidal ratio of 70% or higher and lower than 90%) | 4 (Herbicidal ratio of 70% or higher and lower than 90%) | 5 (Herbicidal ratio of 90% or more (almost completely withered)) | 4 (Herbicidal ratio of 70% or higher and lower than 90%) | – |
| CC(CC1CC(O)=C(c2c(C)cc(C)cc2C)C1=O)=NOCc1cccc(Cl)c1 (stereo not drawn) [1-114] | 4 (Herbicidal ratio of 70% or higher and lower than 90%) | 0 (Herbicidal ratio of 5% or lower (almost no effect)) | 5 (Herbicidal ratio of 90% or more (almost completely withered)) | 4 (Herbicidal ratio of 70% or higher and lower than 90%) | – | – | – | – | – |
| Cc1cc(-n2cc(Cl)cn2)cc(C)c1C1=C(O)CC(CC(=NOCC(F)(F)F)C(C)C)C1=O (stereo not drawn) [9-014] | – | – | – | – | 2 (Herbicidal ratio of 20% or higher and lower than 40%) | 0 (Herbicidal ratio of 5% or lower (almost no effect)) | 5 (Herbicidal ratio of 90% or more (almost completely withered)) | 1 (Herbicidal ratio of 5% or higher and lower than 20%) | – |
| CC(CC1CC(O)=C(c2c(C)cc(C)cc2C)C1=O)=NOCC#N (stereo not drawn) [1-102] | 2 (Herbicidal ratio of 20% or higher and lower than 40%) | 0 (Herbicidal ratio of 5% or lower (almost no effect)) | 5 (Herbicidal ratio of 90% or more (almost completely withered)) | 4 (Herbicidal ratio of 70% or higher and lower than 90%) | – | – | – | – | – |
| CON=C(C)CC1C(O)=C(c2c(C)cc(C)cc2C)C(=O)C1C (mixture of isomers) [12-002] | – | – | – | – | 5 (Herbicidal ratio of 90% or more (almost completely withered)) | 3 (Herbicidal ratio of 40% or higher and lower than 70%) | 5 (Herbicidal ratio of 90% or more (almost completely withered)) | 2 (Herbicidal ratio of 20% or higher and lower than 40%) | – |
| CC#Cc1cc(C)c(C2=C(O)CC(CC(C)=NOCC(F)(F)F)C2=O)c(C)c1 (stereo not drawn) [9-011] | – | – | – | – | 4 (Herbicidal ratio of 70% or higher and lower than 90%) | 0 (Herbicidal ratio of 5% or lower (almost no effect)) | 5 (Herbicidal ratio of 90% or more (almost completely withered)) | 5 (Herbicidal ratio of 90% or more (almost completely withered)) | – |
| CC(CC1CC(O)=C(c2c(C)cc(-n3cc(Cl)cn3)cc2C)C1=O)=NOCC(F)(F)F (stereo not drawn) [9-010] | – | – | – | – | 3 (Herbicidal ratio of 40% or higher and lower than 70%) | 0 (Herbicidal ratio of 5% or lower (almost no effect)) | 5 (Herbicidal ratio of 90% or more (almost completely withered)) | 0 (Herbicidal ratio of 5% or lower (almost no effect)) | – |
| CON=C(C)CC1CC(OC(C)=O)=C(c2c(C)cc(C)cc2C)C1=O (stereo not drawn) [1-005] | – | – | – | – | 4 (Herbicidal ratio of 70% or higher and lower than 90%) | 3 (Herbicidal ratio of 40% or higher and lower than 70%) | 5 (Herbicidal ratio of 90% or more (almost completely withered)) | 5 (Herbicidal ratio of 90% or more (almost completely withered)) | – |
| CON=C(CC1CC(O)=C(c2c(C)cc(-n3cc(Cl)cn3)cc2C)C1=O)C1CC1 (stereo not drawn) [9-007] | – | – | – | – | 4 (Herbicidal ratio of 70% or higher and lower than 90%) | 0 (Herbicidal ratio of 5% or lower (almost no effect)) | 5 (Herbicidal ratio of 90% or more (almost completely withered)) | 4 (Herbicidal ratio of 70% or higher and lower than 90%) | – |
| CCC(=O)CC1CC(O)=C(c2c(C)cc(Br)cc2OC)C1=O (racemic) [14-002] | – | – | – | – | 4 (Herbicidal ratio of 70% or higher and lower than 90%) | 0 (Herbicidal ratio of 5% or lower (almost no effect)) | 5 (Herbicidal ratio of 90% or more (almost completely withered)) | 3 (Herbicidal ratio of 40% or higher and lower than 70%) | – |
| COC(=O)C(C(=O)C1CC1)C1CC(O)=C(c2c(C)cc(Br)cc2C)C1=O (mixture of isomers) [10-002] | – | – | – | – | 0 (Herbicidal ratio of 5% or lower (almost no effect)) | 0 (Herbicidal ratio of 5% or lower (almost no effect)) | 5 (Herbicidal ratio of 90% or more (almost completely withered)) | 0 (Herbicidal ratio of 5% or lower (almost no effect)) | – |
| CC(CC1CC(O)=C(c2c(C)cc(C)cc2C)C1=O)=NOCc1ccccc1C(F)(F)F (stereo not drawn) [1-116] | 5 (Herbicidal ratio of 90% or more (almost completely withered)) | 0 (Herbicidal ratio of 5% or lower (almost no effect)) | 5 (Herbicidal ratio of 90% or more (almost completely withered)) | 3 (Herbicidal ratio of 40% or higher and lower than 70%) | – | – | – | – | – |
| Cc1cc(Br)cc(C)c1C1=C(O)CC(CC(=O)C2CC2)C1=O (racemic) [10-004] | – | – | – | – | 4 (Herbicidal ratio of 70% or higher and lower than 90%) | 0 (Herbicidal ratio of 5% or lower (almost no effect)) | 5 (Herbicidal ratio of 90% or more (almost completely withered)) | 4 (Herbicidal ratio of 70% or higher and lower than 90%) | – |
| CON=C(C)CC1CC(OC(=O)c2nc(C)sc2C)=C(c2c(C)cc(C)cc2C)C1=O (stereo not drawn) [1-101] | 5 (Herbicidal ratio of 90% or more (almost completely withered)) | 0 (Herbicidal ratio of 5% or lower (almost no effect)) | 5 (Herbicidal ratio of 90% or more (almost completely withered)) | 5 (Herbicidal ratio of 90% or more (almost completely withered)) | – | – | – | – | – |
| CON=C(C)CC1CC(OC(=O)C2CCCO2)=C(c2c(C)cc(C)cc2C)C1=O (stereo not drawn) [1-076] | – | – | – | – | – | – | – | – | g: rapeseed, effect on crop (criteria 0-5) ([1]; 192 g/ha): 4 (Herbicidal ratio of 70% or higher and lower than 90%); f: beet, effect on crop (criteria 0-5) ([2]; 192 g/ha): 0 (Herbicidal ratio of 5% or lower (almost no effect)); G: Setaria viridis, herbicidal effect (criteria 0-5) ([3]; 192 g/ha): 5 (Herbicidal ratio of 90% or more (almost completely withered)); e: wheat, effect on crop (criteria 0-5) ([4]; 192 g/ha): 5 (Herbicidal ratio of 90% or more (almost completely withered)) |
| CON=C(CC1CC(O)=C(c2c(C)cc(C)cc2OC)C1=O)C1CC1 (mixture of isomers) [13-002] | – | – | – | – | 4 (Herbicidal ratio of 70% or higher and lower than 90%) | 3 (Herbicidal ratio of 40% or higher and lower than 70%) | 5 (Herbicidal ratio of 90% or more (almost completely withered)) | 5 (Herbicidal ratio of 90% or more (almost completely withered)) | – |
| CON=C(C)CC1CC(OS(C)(=O)=O)=C(c2c(C)cc(C)cc2C)C1=O (stereo not drawn) [1-006] | – | – | – | – | 3 (Herbicidal ratio of 40% or higher and lower than 70%) | 0 (Herbicidal ratio of 5% or lower (almost no effect)) | 5 (Herbicidal ratio of 90% or more (almost completely withered)) | 3 (Herbicidal ratio of 40% or higher and lower than 70%) | – |
